Values quoted from earlier work in patent publication US5723149A, “Use of medicago saponins for the preparation of cosmetic or pharmaceutical compositions, especially dermatological compositions, promoting renewal of the epidermis, stimulating hair regrowth or delaying hair loss” (LVMH Recherche, priority 1990, dated 1998).

How the values were obtained:
[1] = DE-3 717 280
[2] = B. GESTETNER et al., Experientia, 1971

CC1(C)CC[C@]2(C(=O)O)CC[C@]3(C)C(=CC[C@@H]4[C@@]5(C)C[C@H](O)[C@H](O)[C@@](C)(C(=O)O)[C@@H]5CC[C@]43C)[C@@H]2C1 [medicagenic acid]
antifungal activity [1]: antifungal activity
hemolytic activity [2]: hemolytic activity
